Results taken from patent US6835382B2, “Ii peptide therapeutics to enhance antigen presentation” (University of Massachusetts, priority 1996, dated 2004).
Non-standard residues stand in square brackets, D forms with d. hArg = N=C(N)NCCCC[C@H](N)C(=O)O; Cit = NC(=O)NCCC[C@H](N)C(=O)O; Orn = NCCC[C@H](N)C(=O)O

Assays:
[1] = tested on: murine E^k MHC class II allele; experiment: simultaneous assay, E^k allele (CH27 APC, TPc9.1 T hybridoma, THMCC82-103 or PGCC81-104); type: cell-based
How it was run: (§1)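 Antigenic peptide, mitomycin C-treated APC, effector compound and allele-restricted T hybridoma cultured together for 24 h. Supernatant then transferred to interleukin-dependent HT-2 cells. T cell activation quantified as [3H]TdR uptake by HT-2 cells.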

[2] = target: T1, murine E^d MHC class II allele (Mus musculus, UniProt P01904+P01915); experiment: simultaneous assay, E^d allele (A20 APC, G28.C9 T hybridoma, HEL106-116; HT-2 [3H]TdR readout); type: cell-based; parameters: The A20 and CH27 B cell lymphoma lines express H-2^d and H-2^k alleles, respectively; endogenous in cells; host or cells: A20 B cell lymphoma (mitomycin C-treated or paraformaldehyde-fixed)
T1 sequence (P01904 26-255): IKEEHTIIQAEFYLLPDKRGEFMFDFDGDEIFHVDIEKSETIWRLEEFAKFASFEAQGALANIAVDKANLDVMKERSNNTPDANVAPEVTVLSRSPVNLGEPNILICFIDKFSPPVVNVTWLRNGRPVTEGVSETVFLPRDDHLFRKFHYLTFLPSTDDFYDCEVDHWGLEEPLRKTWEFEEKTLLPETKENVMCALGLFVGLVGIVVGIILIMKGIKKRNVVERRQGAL
T1 sequence (P01915 27-264 limits assumed): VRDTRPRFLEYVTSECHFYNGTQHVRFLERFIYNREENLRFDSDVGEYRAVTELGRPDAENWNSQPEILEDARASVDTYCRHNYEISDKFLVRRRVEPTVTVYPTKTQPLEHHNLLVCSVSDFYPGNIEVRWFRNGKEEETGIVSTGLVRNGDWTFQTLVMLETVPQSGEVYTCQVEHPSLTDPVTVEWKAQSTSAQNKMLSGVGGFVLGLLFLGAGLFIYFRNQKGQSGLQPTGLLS
How it was run: as §1

[3] = Table 1, AE peptide 16 μM (second value), 0.075 μM THMCC82-103, supernatant 1:2
[4] = Table 1, AE peptide 64 μM (first value), 0.075 μM THMCC82-103, supernatant 1:2
[5] = Table 4, AE109 homolog 64 μM, supernatant 1:2
[6] = Table 1, AE peptide 16 μM (second value), 0.4 μM HEL106-116, supernatant 1:4
[7] = Table 1, AE peptide 64 μM (first value), 0.4 μM HEL106-116, supernatant 1:4
[8] = Table 15, AE peptide 16 μM, supernatant 1:4
[9] = Table 16, AE peptide 4 μM, supernatant 1:8

Substance: Ac-YRMKLPKSAK-NH2 [AE109]
- Times Baseline Response, E^k [1, 3]: 2.2
- Times Baseline Response, E^k [1, 4]: 6.9
- Times Baseline Response, E^k ([1]; Table 2, AE peptide 64 μM, 0.05 μM PGCC81-104, supernatant 1:2): 43.7
- Times Baseline Response, E^k [1, 5]: 2.3
- Times Baseline Response, E^k ([1]; Table 8, AE peptide 4 μM (third), supernatant 1:4): 1.0
- Times Baseline Response, E^k ([1]; Table 8, AE peptide 16 μM (second), supernatant 1:4): 1.5,
- Times Baseline Response, E^k ([1]; Table 8, AE peptide 64 μM (first), supernatant 1:4): 4.3,
- Times Baseline Response, E^k ([1]; Table 10, AE peptide 64 μM, supernatant 1:2 (first value)): 66.0
- Times Baseline Response, E^k ([1]; Table 10, AE peptide 64 μM, supernatant 1:4 (second value)): 56.3
- Times Baseline Response, E^d [2, 6]: 20.8
- Times Baseline Response, E^d [2, 7]: 39.3
- Times Baseline Response, E^d ([2]; Table 2, AE peptide 64 μM, 0.05 μM HEL106-116, supernatant 1:2): 25.5
- Times Baseline Response, E^d [2, 5]: 3.3
- Times Baseline Response, E^d ([2]; Table 8, AE peptide 4 μM (third), supernatant 1:8): 7.4
- Times Baseline Response, E^d ([2]; Table 8, AE peptide 16 μM (second), supernatant 1:8): 17.6,
- Times Baseline Response, E^d ([2]; Table 8, AE peptide 64 μM (first), supernatant 1:8): 16.4,
- Times Baseline Response, E^d ([2]; Table 10, AE peptide 16 μM (second value), supernatant 1:2): 24.3
- Times Baseline Response, E^d ([2]; Table 10, AE peptide 64 μM (first value), supernatant 1:2): 27.5

Substance: Ac-Y[Cit]MKLPKSAK-NH2 [AE131]
- Times Baseline Response, E^k [1, 5]: 0.8
- Times Baseline Response, E^k [1, 8]: 4.1
- Times Baseline Response, E^d [2, 5]: 2.8
- Times Baseline Response, E^d [2, 8]: 1.6

Substance: Ac-Y[Orn]MKLPKSAK-NH2 [AE130]
- Times Baseline Response, E^k [1, 5]: 1.1
- Times Baseline Response, E^d [2, 5]: 0.9

Substance: Ac-Y[hArg]MKLPKSAK-NH2 [AE132]
- Times Baseline Response, E^k [1, 5]: 5.5
- Times Baseline Response, E^k [1, 9]: 2.2
- Times Baseline Response, E^d [2, 5]: 1.8
- Times Baseline Response, E^d [2, 9]: 3.9

Substance: Ac-l RMKLPK-NH2 [AE160]
- Times Baseline Response, E^k ([1]; Table 11, AE peptide 64 μM, supernatant 1:4): 1.7
- Times Baseline Response, E^d ([2]; Table 11, AE peptide 64 μM, supernatant 1:8): 11.0

Substance: YRMKLPKSAKPVSQMR [AE101]
- Times Baseline Response, E^k [1, 3]: 0.8
- Times Baseline Response, E^k [1, 4]: 1.0
- Times Baseline Response, E^d [2, 6]: 4.9
- Times Baseline Response, E^d [2, 7]: 13.6
